According to publication PMC5363571 (Oncotarget, 2016):
Where a name gives a salt, the structure may show the parent alone.

target: USP7 (Homo sapiens, UniProt Q93009); experiment: biochemical; set-up: Ub-AMC hydrolysis by recombinant USP7 (20 nM), 30 min pre-incubation, fluorescence read-out; conditions: inhibitor
Sequence (Q93009 whole entry): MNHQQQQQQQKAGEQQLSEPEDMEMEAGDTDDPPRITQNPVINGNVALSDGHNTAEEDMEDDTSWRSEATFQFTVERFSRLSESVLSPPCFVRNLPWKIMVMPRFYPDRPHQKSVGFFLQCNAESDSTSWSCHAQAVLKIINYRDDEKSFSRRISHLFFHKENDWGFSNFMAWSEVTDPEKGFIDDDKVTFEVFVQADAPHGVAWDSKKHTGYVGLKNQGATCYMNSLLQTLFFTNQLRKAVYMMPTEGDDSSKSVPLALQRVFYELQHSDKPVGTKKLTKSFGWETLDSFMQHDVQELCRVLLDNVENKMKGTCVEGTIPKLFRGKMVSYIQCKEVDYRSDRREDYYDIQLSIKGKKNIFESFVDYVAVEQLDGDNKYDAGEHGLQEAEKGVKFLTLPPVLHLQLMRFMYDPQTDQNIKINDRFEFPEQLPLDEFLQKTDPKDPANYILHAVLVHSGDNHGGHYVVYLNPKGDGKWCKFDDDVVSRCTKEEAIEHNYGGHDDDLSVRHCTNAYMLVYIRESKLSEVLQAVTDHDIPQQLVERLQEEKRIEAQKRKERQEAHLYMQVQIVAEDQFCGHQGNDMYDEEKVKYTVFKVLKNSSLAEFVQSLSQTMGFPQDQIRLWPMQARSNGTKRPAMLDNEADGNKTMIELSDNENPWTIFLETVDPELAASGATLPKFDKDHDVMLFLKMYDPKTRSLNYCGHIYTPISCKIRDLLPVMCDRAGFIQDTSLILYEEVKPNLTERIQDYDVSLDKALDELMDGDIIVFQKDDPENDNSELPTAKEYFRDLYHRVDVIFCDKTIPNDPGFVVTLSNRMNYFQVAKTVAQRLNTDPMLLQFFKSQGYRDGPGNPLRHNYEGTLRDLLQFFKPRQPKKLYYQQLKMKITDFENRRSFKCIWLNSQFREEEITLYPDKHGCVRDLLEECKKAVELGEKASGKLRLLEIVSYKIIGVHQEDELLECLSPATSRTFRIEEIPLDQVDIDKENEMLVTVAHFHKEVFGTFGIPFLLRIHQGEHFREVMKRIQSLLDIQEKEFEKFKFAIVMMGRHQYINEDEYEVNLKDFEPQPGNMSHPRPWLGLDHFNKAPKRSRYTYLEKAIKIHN

SMILES	% Inhibition at 50 μM [%]
CNC(=O)Oc1ccc2c(c1)[C@]1(C)CCN(C)[C@@H]1N2C [Physostigmine sulfate]	<5

same assay, conditions: read-out: % Inhibition at 50 μM

inhibition at 50 µM [%]	SMILES
< 5	CC(C)Nc1cccnc1N1CCN(C(=O)c2cc3cc(NS(C)(=O)=O)ccc3[nH]2)CC1 [Delavirdine mesylate]
< 5	CC(=O)Oc1ccccc1C(=O)O [Acetylsalicylic acid]
< 5	Cc1cnc(C(=O)NCCc2ccc(S(=O)(=O)NC(=O)NC3CCCCC3)cc2)cn1 [Glipizide]
< 5	Nc1ccc(S(=O)(=O)Nc2ncccn2)cc1 [Sulfadiazine]
< 5	O=C(O)c1cccnc1Nc1cccc(C(F)(F)F)c1 [Niflumic acid]
< 5	OCCOCCN1CCN(C2=Nc3ccccc3Sc3ccccc32)CC1 [Quetiapine fumarate]
< 5	CN1[C@@H]2CCC[C@H]1C[C@@H](NC(=O)c1nn(C)c3ccccc13)C2 [Granisetron]
16.5	CN1CCCCC1CCN1c2ccccc2Sc2ccc([S+](C)[O-])cc21 (stereo not shown) [Mesoridazine besylate]
< 5	CCc1nn(CCCN2CCN(c3cccc(Cl)c3)CC2)c(=O)n1CCOc1ccccc1 [Nefazodone]
< 5	O=C(CCCN1CCC(O)(c2ccc(Cl)cc2)CC1)c1ccc(F)cc1 [Haloperidol HCl]
< 5	O=C(O)c1cc(/N=N/c2ccc(S(=O)(=O)Nc3ccccn3)cc2)ccc1O [Sulfasalazine]
< 5	COC(=O)Nc1nc2cc(C(=O)c3ccccc3)ccc2[nH]1 [Mebendazol]
24.9	CN(Cc1ccc(C(C)(C)C)cc1)Cc1cccc2ccccc12 [Butenafine]
< 5	Cc1ccc(C(=O)Nc2ccc(S(=O)(=O)O)c3cc(S(=O)(=O)O)cc(S(=O)(=O)O)c23)cc1NC(=O)c1cccc(NC(=O)Nc2cccc(C(=O)Nc3cc(C(=O)Nc4ccc(S(=O)(=O)O)c5cc(S(=O)(=O)O)cc(S(=O)(=O)O)c45)ccc3C)c2)c1 [Suramin sodium]
< 5	COc1ccc(CN(CCN(C)C)c2ccccn2)cc1 [Mepyramine maleate]
< 5	CC(C)(C)[C@]1(O)CCN2C[C@H]3c4ccccc4CCc4cccc(c43)[C@@H]2C1 [Butaclamol (+)]
< 5	COc1cc(NS(=O)(=O)c2ccc(N)cc2)nc(OC)n1 [Sulfadimethoxine]
< 5	CC(C)(C)C(=O)C(Oc1ccc(Cl)cc1)n1ccnc1 (stereo not shown) [Climbazole]
< 5	CC1CNc2c(cccc2S(=O)(=O)N[C@@H](CCCNC(=N)N)C(=O)N2CC[C@@H](C)C[C@@H]2C(=O)O)C1 (stereo partly shown) [Argatroban]
< 5	O=C(O)c1ccccc1Nc1cccc(C(F)(F)F)c1 [Flufenamic acid]
< 5	O=C1CCc2ccc(OCCCCN3CCN(c4cccc(Cl)c4Cl)CC3)cc2N1 [Aripiprazole]
< 5	O=C1NC(=O)C(c2ccccc2)(c2ccccc2)N1 [Phenytoin]
< 5	CCN1CCCC1CNC(=O)c1cc(S(=O)(=O)CC)c(N)cc1OC (stereo not shown) [Amisulpride]
19.8	COc1ccc2c(c1)c(CC(=O)OCC(=O)O)c(C)n2C(=O)c1ccc(Cl)cc1 [Acemetacin]
< 5	CN(C)CCCN1c2ccccc2Sc2ccc(Cl)cc21 [Chlorpromazine HCl]
78.2	CCCNCC(O)COc1ccccc1C(=O)CCc1ccccc1 (stereo not shown) [Propafenone]
< 5	C[C@@H]1CCC[C@H](C)N1NC(=O)c1ccc(Cl)c(S(N)(=O)=O)c1 [Clopamide]
< 5	COc1ccc(C[C@H](N)C(=O)N[C@H]2[C@@H](O)[C@H](n3cnc4c(N(C)C)ncnc43)O[C@@H]2CO)cc1 [Puromycin 2HCl]
< 5	Cc1scc2c1N(C(=O)CN1CCN(C)CC1)c1ccccc1NC2=O [Telenzepine 2HCl]
< 5	CC(NC(C)(C)C)C(=O)c1cccc(Cl)c1 (stereo not shown) [Amfebutamone]

The next lines start with the compound.

SMILES	inhibition at 50 µM [%]
CCCCC[C@H](O)/C=C/[C@H]1[C@H](O)CC(=O)[C@@H]1C/C=C\CCCC(=O)O [Dinoprostone]	6.5
NCCCC(O)(P(=O)(O)O)P(=O)(O)O [Alendronate]	< 5
CC(C)(C)NCC(O)c1ccccc1Cl (stereo not shown) [Tulobuterol]	16.5
CC(=O)O[C@H]1C[C@@H]2CC[C@@H]3[C@H](CC[C@@]4(C)[C@H]3C[C@H]([N+]3(C)CCCCC3)[C@@H]4OC(C)=O)[C@@]2(C)C[C@@H]1[N+]1(C)CCCCC1 [Pancuronium Br]	< 5
CC(C)OC(=O)CCC/C=C\C[C@@H]1[C@@H](CC[C@@H](O)CCc2ccccc2)[C@H](O)C[C@@H]1O [Latanoprost]	6.9
Nc1ccn([C@H]2CC[C@@H](CO)O2)c(=O)n1 [2',3' - dideoxycytidine]	< 5
CC12CC3CC(C)(C1)CC(N)(C3)C2 [Memantine HCl]	< 5
CN[C@@H]1[C@H](O)[C@H](NC)[C@H]2O[C@@]3(O)C(=O)C[C@@H](C)O[C@H]3O[C@@H]2[C@H]1O [Spectinomycin]	< 5
CC1(C)CCC2(C(=O)O)C(O)CC3(C)C(=CCC4C5(C)CC(O)C(O)C(C)(CO)C5CCC43C)C2C1 (stereo not shown) [Polygalacic acid]	< 5
Cc1nc2n(c(=O)c1CCN1CCC(c3noc4cc(F)ccc34)CC1)CCCC2 [Risperidone]	< 5
Cn1c(=O)c2[nH]cnc2n(C)c1=O [Aminophylline]	< 5
O=C1C[C@@H]2OCC=C3CN4CC[C@]56c7ccccc7N1[C@H]5[C@H]2[C@H]3C[C@H]46 [Strychnine HCl]	< 5
O=C(O)CCCc1ccccc1 [Sodium phenylbutyrate]	< 5
CC(C)(CO)[C@@H](O)C(=O)NCCC(=O)O [Pantothenic acid]	< 5
CN1CCN(CCCN2c3ccccc3Sc3ccc(C(F)(F)F)cc32)CC1 [Trifluoperazine 2HCl]	< 5
CC1=C(/C=C/C(C)=C/C=C/C(C)=C/C=C/C=C(C)/C=C/C=C(C)/C=C/C2=C(C)C(=O)CCC2(C)C)C(C)(C)CCC1=O [Canthaxanthin]	< 5
CN(C)C(=O)C(CCN1CCC(O)(c2ccc(Cl)cc2)CC1)(c1ccccc1)c1ccccc1 [Loperamide]	< 5
CCCCCCCCCCCCCCCC(=O)O[C@@H]1[C@@H](O)[C@@H](O)[C@@H]([C@H](NC(=O)[C@@H]2C[C@@H](CCC)CN2C)[C@H](C)Cl)O[C@@H]1SC [Clindamycin palmitate]	< 5
CCC[S+]([O-])c1ccc2[nH]c(NC(=O)OC)nc2c1 (stereo not shown) [Ricobendazole]	< 5
C=C(C)[C@@H]1CC[C@]2(C)CC[C@]3(C)[C@H](CC[C@@H]4[C@@]5(C)CC[C@H](O)C(C)(C)[C@@H]5CC[C@]43C)[C@@H]12 [Lupeol]	< 5
N[C@@H](Cc1ccc(N(CCCl)CCCl)cc1)C(=O)O [Melphalan]	< 5
CN(C)CCc1c[nH]c2ccc(C[C@H]3COC(=O)N3)cc12 [zolmitriptan]	< 5
C[C@H](CS)C(=O)N1CCC[C@H]1C(=O)O [Captopril]	< 5

SMILES	inhibition at 50 µM [%]
c1cnc(N2CCN(Cc3ccc4c(c3)OCO4)CC2)nc1 [Piribedil HCl]	< 5
C[C@H]1COc2c(N3CCN(C)CC3)c(F)cc3c(=O)c(C(=O)O)cn1c23 [Levofloxacin HCl]	< 5
C[N+](C)(C)CCOC(=O)CCC(=O)OCC[N+](C)(C)C [Succinylcholine]	< 5
Oc1ncnc2[nH]ncc12 [Allopurinol]	< 5
COc1ccc(C(CN(C)C)C2(O)CCCCC2)cc1 (stereo not shown) [Venlafaxine HCl]	< 5
COc1c(N2C[C@@H]3CCCN[C@@H]3C2)c(F)cc2c(=O)c(C(=O)O)cn(C3CC3)c12 [Moxifloxacin HCl]	< 5
CCC(=O)O[C@]1(C(=O)CCl)[C@@H](C)C[C@H]2[C@@H]3CCC4=CC(=O)C=C[C@]4(C)[C@@]3(F)[C@@H](O)C[C@@]21C [Clobetasol propionate]	42.3
O=P(O)(O)C(Cl)(Cl)P(=O)(O)O [Clodronate disodium]	< 5
CC[C@H](C)C(=O)O[C@H]1CCC=C2C=C[C@H](C)[C@H](CC[C@@H]3C[C@@H](O)CC(=O)O3)[C@H]21 [Mevastatin]	< 5
Nc1ccn([C@@H]2O[C@H](CO)[C@@H](O)[C@@H]2O)c(=O)n1 [Cytarabine]	< 5
CN(C)C(=N)NC(=N)N [Metformin]	8.6
CC(C)[C@H]1CC[C@H](C(=O)N[C@H](Cc2ccccc2)C(=O)O)CC1 [nateglinide]	< 5
CNC(=C[N+](=O)[O-])NCCSCc1ccc(CN(C)C)o1 [Ranitidine HCl]	< 5
CC(=O)OCC[N+](C)(C)C [Acetylcholine Cl]	< 5
Nc1nc2ccc(OC(F)(F)F)cc2s1 [Riluzole HCl]	< 5
N=C(N)NC(=N)N1CCOCC1 [Moroxydine HCl]	17.2
C[C@@H]1O[C@@H](O[C@H]2C[C@@H](O)[C@]3(CO)[C@H]4[C@H](O)C[C@]5(C)[C@@H](C6=CC(=O)OC6)CC[C@]5(O)[C@@H]4CC[C@]3(O)C2)[C@H](O)[C@H](O)[C@H]1O [Ouabain]	< 5
O=c1[nH]cnc2c1ncn2[C@H]1CC[C@@H](CO)O1 [Didanosine]	< 5
CC(=O)O[C@]1(C(C)=O)CC[C@H]2[C@@H]3C[C@H](C)C4=CC(=O)CC[C@]4(C)[C@H]3CC[C@@]21C [Medroxyprogesterone 17-acetate]	< 5
CN1[C@@H](CC(=O)c2ccccc2)CCC[C@H]1C[C@H](O)c1ccccc1 [Lobeline]	< 5
CC1(C)CC[C@]2(C(=O)O)CC[C@]3(C)C(=CC[C@@H]4[C@@]5(C)CC[C@H](O)C(C)(C)[C@@H]5CC[C@]43C)[C@@H]2C1 [Oleanolic acid]	69.2
CC1(C)[C@@H](O)CC[C@]2(C)[C@H]3C(=O)C=C4[C@@H]5C[C@@](C)(C(=O)O)CC[C@]5(C)CC[C@@]4(C)[C@]3(C)CC[C@@H]12 [Glycyrrhetic acid]	< 5
